pIC50: −log10 of the molar value. Where a name gives a salt, the structure may show the parent alone. Activity calls are given as the source filed them. The calls are words filed in the database; no cut-off is given here.
Columns and labels:
[1] = biological target: Nucleic Acid; assay: Binding affinity to HIV-1 TAR RNA by Tat-TAR fluorimetric competition assay; type: nucleic-acid assay, Human immunodeficiency virus 1
[2] = system: Nucleic Acid; assay: Binding affinity to HIV-1 TAR RNA at 0.4 mM by 1H NMR titration method; type: nucleic-acid assay; details: Human immunodeficiency virus 1
[3] = system: Nucleic Acid; assay: Binding affinity to HIV-1 TAR RNA using 2 equivalents of compound by 1H NMR titration method; type: nucleic-acid assay; details: Human immunodeficiency virus 1

Row | SMILES | pIC50 [1] | Activity [2] | Activity [3]
1 | Nc1nccc2ccc(O)cc12 | 3.12 | – | –
2 | Nc1ncc[nH]1 | < 2.70 | – | –
3 | CN(C)c1ccc2nc(N)nc(N)c2c1 | 4.35 | – | –
4 | Nc1ccc2ccnc(N)c2c1 | 3.82 | Active | –
5 | N=C(N)NCc1ccccc1 | < 1.70 | – | –
6 | Nc1nc(N)c2ccccc2n1 | 3.40 | – | –
7 | CN(C)c1nc(N(C)C)c2cc(N)ccc2n1 | 3.89 | – | –
8 | CN(C)C1=Nc2cccc3cccc(c23)N1 | 3.82 | – | –
9 | Nc1ncccn1 | < 1.70 | – | –
10 | c1ccc(CNC2=NCCN2)cc1 | < 1.70 | – | –
11 | NC1=Nc2cccc3cccc(c23)N1 | 4.30 | – | –
12 | NCc1cnc2nc(N)nc(N)c2n1 | 4.30 | – | –
13 | N=C(N)Nc1ccccc1 | < 1.70 | – | –
14 | N=C(N)N [GUANIDINE HYDROCHLORIDE] | < 1.70 | – | –
15 | Nc1ccc2ccncc2c1 | 2.70 | – | –
16 | Nc1nc(N)c2cc(CN3CCNCC3)ccc2n1 | 4.22 | – | –
17 | Nc1ccccn1 [2-AMINOPYRIDINE] | < 1.70 | – | –
18 | Nc1nc2ccccc2[nH]1 | < 1.96 | – | –
19 | NC1=Nc2ccccc2CN1 | < 2.00 | – | –
20 | Nc1ccc2nc(N)nc(N)c2c1 [QUINAZOLINE-2,4,6-TRIAMINE] | 4.40 | – | Active
21 | CNC1=Nc2cccc3cccc(c23)N1 | 4.30 | – | –
22 | NCc1ccc2nc(N)nc(N)c2c1 | 4.15 | – | –
23 | Nc1nc2ccccc2c(=O)[nH]1 | < 1.70 | – | –
24 | Nc1nc(N)c2c(N)c(N)ccc2n1 | 4.30 | – | –
25 | Nc1nc(N)c2cc(NCc3ccccc3)ccc2n1 | 4.30 | – | –
26 | Cc1ccc2nc(N)nc(N)c2c1 | 2.70 | – | –
27 | Nc1ccc2c(N)nc(N)nc2c1 | 3.96 | – | –
28 | Nc1cccc2c(N)nccc12 | 3.15 | – | –

Source: ChEMBL document CHEMBL3352792, “Fragment based search for small molecule inhibitors of HIV-1 Tat-TAR” (Bioorg Med Chem Lett, 2014)
